{"source": "paper PMC3024946", "about": "“Hydroxyproline-containing collagen analogs trigger the release and activation of collagen-sequestered proMMP-2 by competition with prodomain-derived peptide P33-42” (Fibrogenesis & Tissue Repair, 2011)", "key": {"[1]": {"system": "ActMMP-2", "test": "Solid-phase binding of [125I]-actMMP-2 to immobilized collagens/peptides (microwells)", "parameters": "species or system human", "details": "ActMMP-2, 2 ng/well; coated wells; 4°C, 2 h; residual radioactivity; mean ± SD, at least five experiments in triplicate", "method": "(§1) Human recombinant proMMPs and in vitro activated MMPs were obtained from Invitek and were labeled with the [^125I]-Bolton-Hunter reagent according to the manufacturer's instructions (PerkinElmer, Rodgau, Germany) before the buffer was exchanged for phosphate-buffered saline (PBS) with 0.05% (vol/vol) Tween 20 by gel filtration as described previously. Specific radioactivity for [^125I]-MMPs was 3-9 × 10^4 cpm/ng. Precipitation with 10% (wt/vol) trichloroacetic acid and 200 μg of BSA recovered 96% to 100% of protein-bound radioactivity. Aliquots of labeled MMPs were frozen and stored at -80°C. The activity and integrity were checked by substrate gel zymography using SDS-PAGE and autoradiography with overnight exposure to Biomax MS film (Kodak, Stuttgart, Germany) (Figure 2A).\n(§2) Native human CI, CIII and CVI were purified from skin tissue and placenta. The CI single chains α1(I) and α2(I) were obtained and modified as described previously. To prepare defined fragments, 2 mg of α1(I) were dissolved in 1 ml of 70% (vol/vol) formic acid at room temperature, the tubes were flushed with nitrogen for 10 min, and then 2 mg of CB were added. After incubation for 4 h at 37°C, free CB was neutralized and the samples were lyophilized. The peptides CB3, CB6, CB7 and CB8 were separated from the reaction mixture by gel filtration followed by ion-exchange chromatography. The resulting peptides were characterized by amino acid analysis and SDS-PAGE [45, 46]. The CB peptides had the following melting temperatures: CB3, 23.9°C; CB6, 26.7°C; CB7, 28.1°C; and CB8, 28.0°C [31].\n(§3) The following collagen analogs and control peptides were synthesized as described previously: (GPO)10, H-Gly-Cys-Hyp-(Gly-Pro-Hyp)10-Gly-Cys-Hyp-Gly-NH2; (GPP)10, H-Gly-Cys-Pro-(Gly-Pro-Pro)10-Gly-Cys-Pro-Gly-NH2; and GAP, H-Gly-Ala-Cys-(Gly-Ala-Pro)5-Gly-Phe-Hyp-Gly-Glu-Arg-(Gly-Ala-Pro)5-NH2. Peptides (POG)10, (PPG)10 and (POG)5 were purchased from Peptide International (Louisville, KY, USA). Spontaneous triple-helix assembly was approved by polarimetry over a 10-cm path length at 1°C/min in 10 mM phosphate buffer, pH 7.4. At 5 mg/ml, midpoints of melting curves occurred at 82.3 ± 1.4°C for (GPO)10 and at 45.8 ± 0.8°C for (GPP)10. […] Graphs were calculated from the primary data using a custom fitting program written by D.A. Slatter (Department of Biochemistry, University of Cambridge, Cambridge, UK [48]) to model different possible transitions. All collagens, CI derivatives and peptides were stored in stock solutions of 2 mg/ml in 150 mM acetic acid at -20°C.\n(§4) ProMMP-2 and proMMP-9 or actMMP-2 and actMMP-9 were bound to nitrocellulose and polystyrene-immobilized native collagens, CI chains, CB peptides or structural analogs. Serial dilutions of collagens or CI derivatives in 150 mM acetic acid were dotted at 3 × 3 μl to a nitrocellulose membrane with high protein-binding capacity (GE Healthcare, Munich, Germany). Air-dried membranes were blocked with PBS and 0.3% (vol/vol) Tween 20 overnight at 4°C, washed three times, and incubated with 1 ng/ml [^125I]-pro- and actMMP-2 and pro- and actMMP-9 in PBS and 0.3% (vol/vol) Tween 20 for 2 h at room temperature. Membranes were washed again and air-dried, and bound MMP was monitored by autoradiography. In parallel, polystyrene microtiter plates (Dynex, Chantilly, VA, USA) were coated with collagen proteins and peptides. Here 2 μg/well or 200 ng/well proteins and peptides or BSA as control were immobilized in 100 μl of 50 mM ammonium bicarbonate buffer, pH 9.6, by overnight incubation at 4°C. Immobilization efficacies were 20% to 45% of total proteins. Wells were washed three times with PBS, and nonspecific binding sites were blocked with PBS and 0.05% (vol/vol) Tween 20 for 1 h at room temperature. All incubation steps were performed with 2 ng of [^125I]-MMPs at 4°C for 2 h. […]"}, "[2]": {"system": "ActMMP-9", "test": "Solid-phase binding of [125I]-actMMP-9 to immobilized collagens/peptides (microwells)", "parameters": "species or system human", "details": "ActMMP-9, 2 ng/well; coated wells; 4°C, 2 h; residual radioactivity; mean ± SD, at least five experiments in triplicate", "method": "as §1, §2, §3, §4"}, "[3]": {"system": "ProMMP-2", "test": "Solid-phase binding of [125I]-proMMP-2 to immobilized collagens/peptides (microwells)", "parameters": "species or system human", "details": "ProMMP-2, 2 ng/well; coated wells; 4°C, 2 h; residual radioactivity; mean ± SD, at least five experiments in triplicate", "method": "as §1, §2, §3, §4"}, "[4]": {"system": "ProMMP-9", "test": "Solid-phase binding of [125I]-proMMP-9 to immobilized collagens/peptides (microwells)", "parameters": "species or system human", "details": "ProMMP-9, 2 ng/well; coated wells; 4°C, 2 h; residual radioactivity; mean ± SD, at least five experiments in triplicate", "method": "as §1, §2, §3, §4"}, "[5]": {"system": "ProMMP-2", "test": "Fluorogenic short-substrate assay, activation of proMMP-2", "assay_type": "biochemical, human", "details": "proMMP-2; CI-coated wells", "method": "(§5) Enzymatic activities of MMPs were studied spectrofluorimetrically by cleavage of fluorogenic substrates in MMP activity buffer within 2 to 5 h. For gelatinases 800 nM MCA-Pro-Leu-Gly-Leu-Dnp-Dap-Ala-Arg-NH2 (λex/em 328/393 nm; Bachem, Bubendorf, Switzerland) or 10 μg/ml DQ-gelatine were used, according to the method described by Knight et al. for collagenases 800 nM MCA-Pro-Cha-Gly-Nva-His-Ala-Dpa-NH2 (λex/em 280/360 nm; Anaspec, San José, CA, USA). In some experiments, proMMP-2 was fully activated in the presence of 1 mM APMA prior to the kinetic measurements. A quantity of 50 ng pro- or actMMP-2 alone or mixed with 10- to 150-fold molar excesses of (GPO)10, GAP, P33-42 or mixtures of (GPO)10 and P33-42, were added to CI-coated, BSA-coated (1 μg/well both) or uncoated wells containing 150 μl of the respective substrate solution. The peptide P33-42 was purchased from the Institute of Biochemistry (Humboldt-University, Berlin, Germany). The influence of CI on MMP-2 enzymatic activity against the quenched fluorescent substrate could be excluded. Background subtraction (measurement without MMPs) was applied to all curves. All experiments were performed with a fluorescence microplate reader (Molecular Devices, Sunnyvale, CA, USA) and black 96-well microtiter plates with a clear bottom (Greiner bio-one, Frickenhausen, Germany)."}, "[6]": {"system": "ActMMP-2", "test": "Fluorogenic short-substrate assay, activity of actMMP-2", "assay_type": "biochemical, human", "details": "CI-coated wells", "method": "as §5"}, "[7]": {"details": "soluble human placenta-isolated triple-helical portion of CI; ref [30]; cited from earlier work", "excerpt": "We tested α1(I) chains, which rapidly refold into triple-helical conformation in neutral buffers at room temperature, as well as CB-peptides of the α1(I) chain, where the length of the triple helix affects their thermal stability. Here the strength of binding of proMMP-2 and proMMP-9 to CB peptides directly correlated to the thermal stability of its tri ... || Native human CI, CIII and CVI were purified from skin tissue and placenta. The CI single chains α1(I) and α2(I) were obtained and modified as described previously. To prepare defined fragments, 2 mg of α1(I) were dissolved in 1 ml of 70% (vol/vol) formic acid at room temperature, the tubes were flushed with nitrogen for 10 min, and then 2 mg of CB were added. After incubation for 4 h at 37°C, free CB was neutralized and the samples were lyophilized. The peptides CB3, CB6, CB7 and CB8 were separated from the reaction mixture by gel filtration followed by ion-exchange chromatography. The ..."}}}
{"substance": "CI: native human collagen type I purified from skin tissue and placenta", "values": [{"measurement": "Binding of [125I]-MMPs", "setting": "[1]", "result": "11.1 ± 1.8 % of maximum control"}, {"measurement": "Binding of [125I]-MMPs", "setting": "[2]", "result": "3.1 ± 0.5 % of maximum control"}, {"measurement": "Binding of [125I]-MMPs", "setting": "[3]", "result": "24.0 ± 5.6 % of maximum control"}, {"measurement": "Binding of [125I]-MMPs", "setting": "[4]", "result": "30.9 ± 3.1 % of maximum control"}, {"measurement": "effect of CI coating on activity", "setting": "[5]", "result": "strong reduction in activity"}, {"measurement": "effect of CI coating on activity", "setting": "[6]", "result": "strong reduction in activity"}, {"measurement": "melting temperature", "setting": "[7]", "result": 33.8, "unit": "°C"}]}
